Assay results from paper PMC10817945, “Design of a novel analogue peptide with potent antibiofilm activities against Staphylococcus aureus based upon a sapecin B-derived peptide” (Scientific Reports, 2024).
Read-outs that look alike come from different tables or passages of the source. Non-standard residues stand in square brackets, D forms with d. Residues, ends and D or L forms follow the SMILES beside them.

Key:
S. aureus strains = format: cell-based, Staphylococcus aureus; conditions: for inhibition of biofilm formation: strains, 24 h
Protocol: To investigate the inhibitory effect of KLK and mKLK peptides on bacterial surface attachment and biofilm formation, the bacterial suspension in TSB with a concentration of 10^7 CFU/ml was prepared from overnight culture. An aliquot of 100 μl of the bacterial suspension was added to wells of 96-well plates containing 100 μl of the peptides solution with concentrations of 1×, 1/2× and 1/4× MIC, resulting in the final peptides concentrations of 1/2×, 1/4× and 1/8× MIC. To investigate the inhibitory effect of the peptides on surface attachment the incubation was performed at 37 °C for 2 h and to evaluate their inhibitory activity on biofilm formation the incubation was performed at 37 °C for 24 h. The wells containing only TSB medium were used as negative controls. After incubation, the contents of the wells were removed and washed three times with PBS and the wells were stained with 200 μl of 0.1% crystal violet for 20 min. The plates were washed again and excess dye was removed. A volume of 200 μl of 95% ethanol was added to each well for 20 min and absorbance was measured at 570 nm by a microplate reader.

24-h S. aureus biofilms = test: Biofilm dispersal activity (crystal violet); format: cell-based, Staphylococcus aureus
Protocol: To investigate the dispersal activity of KLK and mKLK peptide, the 24-h S. aureus biofilms were prepared in TSB medium in the 96-well plates. Then, the final concentrations of 1×, 2×, and 4 × MIC were prepared for each peptide in the wells. After incubation at 37 °C for 12 h, plates were washed with PBS three times to discard unattached bacteria. Subsequently, plates were stained with 250 μl of 0.5% crystal violet for 20 min at room temperature. Then, the wells were washed and 250 μl 33% acetic acid was added to them. Finally, the absorbance was measured at 570 nm using a microplate reader.

[1] = test system: one MRSA and reference strain (ATCC25923); test: Time-kill kinetics assay
Protocol: The peptide-free control was included for each strain. Following incubation at 37 °C for 0, 0.25, 0.5, 1, 2, 4, 5, and 24 h, each sample was serially diluted, plated onto Mueller–Hinton (MH) agar (Merck, Germany) plates and incubated at 37 °C. The viable plate count method was performed after incubation for 24 h and the counts were expressed as Log CFU/ml[44].

Compound: CC(C)C[C@@H](NC(=O)[C@H](N)CCCCN)C(=O)N[C@H](CCCCN)C(=O)N[C@H](CC(C)C)C(=O)N[C@H](CC(C)C)C(=O)N[C@H](CC(C)C)C(=O)N[C@H](CC(C)C)C(=O)N[C@H](CC(C)C)C(=O)N[C@H](CCCCN)C(=O)N[C@H](CC(C)C)C(=O)N[C@H](CCCCN)C(N)=O [KLK] (H-[dK][dL][dK][dL][dL][dL][dL][dL][dK][dL][dK]-NH2; N-terminus assumed)
- crystal violet absorbance at 570 nm, biofilm formation, Mean±SD (S. aureus strains; ATCC25923, 1/8MIC, control 2.302±0.006): 2.113±0.01
- crystal violet absorbance at 570 nm, biofilm formation, Mean±SD (S. aureus strains; MRSA-1, 1/2MIC, control 2.115±0.01): 1.606±0.01
- crystal violet absorbance at 570 nm, biofilm formation, Mean±SD (S. aureus strains; MRSA-1, 1/4MIC, control 2.115±0.01): 1.924±0.004
- crystal violet absorbance at 570 nm, biofilm formation, Mean±SD (S. aureus strains; MRSA-1, 1/8MIC, control 2.115±0.01): 1.947±0.05
- crystal violet absorbance at 570 nm, biofilm formation, Mean±SD (S. aureus strains; MRSA-2, 1/2MIC, control 2.354±0.04): 1.861±0.007
- crystal violet absorbance at 570 nm, biofilm formation, Mean±SD (S. aureus strains; MRSA-2, 1/4MIC, control 2.354±0.04): 2.128±0.01
- crystal violet absorbance at 570 nm, biofilm formation, Mean±SD (S. aureus strains; MRSA-2, 1/8MIC, control 2.354±0.04): 2.187±0.002
- crystal violet absorbance at 570 nm, biofilm formation, Mean±SD (S. aureus strains; MRSA-3, 1/2MIC, control 1.541±0.02): 0.204±0.03
- crystal violet absorbance at 570 nm, biofilm formation, Mean±SD (S. aureus strains; MRSA-3, 1/4MIC, control 1.541±0.02): 1.739±0.002
- crystal violet absorbance at 570 nm, biofilm formation, Mean±SD (S. aureus strains; MRSA-3, 1/8MIC, control 1.541±0.02): 1.441±0.04
- crystal violet absorbance at 570 nm, biofilm formation, Mean±SD (S. aureus strains; MSSA-1, 1/2MIC, control 2.190±0.01): 1.609±0.03
- crystal violet absorbance at 570 nm, biofilm formation, Mean±SD (S. aureus strains; MSSA-1, 1/4MIC, control 2.190±0.01): 1.971±0.10
- crystal violet absorbance at 570 nm, biofilm formation, Mean±SD (S. aureus strains; MSSA-1, 1/8MIC, control 2.190±0.01): 2.007±0.13
- crystal violet absorbance at 570 nm, biofilm formation, Mean±SD (S. aureus strains; MSSA-2, 1/2MIC, control 1.802±0.02): 1.261±0.01
- crystal violet absorbance at 570 nm, biofilm formation, Mean±SD (S. aureus strains; MSSA-2, 1/4MIC, control 1.802±0.02): 1.627±0.01
- crystal violet absorbance at 570 nm, biofilm formation, Mean±SD (S. aureus strains; MSSA-2, 1/8MIC, control 1.802±0.02): 1.633±0.04
- inhibition of biofilm formation (S. aureus strains; 2): 48-66%
- inhibition of biofilm formation (S. aureus strains; 4): 9-11%
- inhibition of biofilm formation (S. aureus strains; 8): 6-9%
- crystal violet absorbance at 570 nm, dispersal activity, Mean±SD (24-h S. aureus biofilms; ATCC25923, 1MIC, control 2.79±0.03): 2.451±0.007
- crystal violet absorbance at 570 nm, dispersal activity, Mean±SD (24-h S. aureus biofilms; ATCC25923, 2MIC, control 2.79±0.03): 2.322±0.02
- crystal violet absorbance at 570 nm, dispersal activity, Mean±SD (24-h S. aureus biofilms; ATCC25923, 4MIC, control 2.79±0.03): 2.017±0.01
- crystal violet absorbance at 570 nm, dispersal activity, Mean±SD (24-h S. aureus biofilms; MRSA-1, 1MIC, control 1.903±0.003): 1.695±0.05
- crystal violet absorbance at 570 nm, dispersal activity, Mean±SD (24-h S. aureus biofilms; MRSA-1, 2MIC, control 1.903±0.003): 1.649±0.06
- crystal violet absorbance at 570 nm, dispersal activity, Mean±SD (24-h S. aureus biofilms; MRSA-1, 4MIC, control 1.903±0.003): 1.426±0.01
- crystal violet absorbance at 570 nm, dispersal activity, Mean±SD (24-h S. aureus biofilms; MRSA-2, 1MIC, control 2.014±0.01): 1.804±0.006
- crystal violet absorbance at 570 nm, dispersal activity, Mean±SD (24-h S. aureus biofilms; MRSA-2, 2MIC, control 2.014±0.01): 1.71±0.01
- crystal violet absorbance at 570 nm, dispersal activity, Mean±SD (24-h S. aureus biofilms; MRSA-2, 4MIC, control 2.014±0.01): 1.643±0.01
- crystal violet absorbance at 570 nm, dispersal activity, Mean±SD (24-h S. aureus biofilms; MRSA-3, 2MIC, control 1.255±0.29): 1.1±0.09
- crystal violet absorbance at 570 nm, dispersal activity, Mean±SD (24-h S. aureus biofilms; MRSA-3, 4MIC, control 1.255±0.29): 0.996±0.04
- crystal violet absorbance at 570 nm, dispersal activity, Mean±SD (24-h S. aureus biofilms; MSSA-1, 1MIC, control 1.787±0.1): 1.589±0.01
- crystal violet absorbance at 570 nm, dispersal activity, Mean±SD (24-h S. aureus biofilms; MSSA-1, 2MIC, control 1.787±0.1): 1.483±0.01
- crystal violet absorbance at 570 nm, dispersal activity, Mean±SD (24-h S. aureus biofilms; MSSA-1, 4MIC, control 1.787±0.1): 1.348±0.01
- crystal violet absorbance at 570 nm, dispersal activity, Mean±SD (24-h S. aureus biofilms; MSSA-2, 1MIC, control 2.116±0.006): 1.858±0.12
- crystal violet absorbance at 570 nm, dispersal activity, Mean±SD (24-h S. aureus biofilms; MSSA-2, 2MIC, control 2.116±0.006): 1.713±0.06
- crystal violet absorbance at 570 nm, dispersal activity, Mean±SD (24-h S. aureus biofilms; MSSA-2, 4MIC, control 2.116±0.006): 1.52±0.001
- time after which no regrowth was observed ([1]; ATCC 25923, 1 × MIC (4 μg/ml)): 30 min
- time after which no regrowth was observed ([1]; ATCC 25923, 2 × MIC (8 μg/ml)): 15 min
- time after which no regrowth was observed ([1]; MRSA, 1 × MIC): 300 min
- reduction in viable cell count ([1]; MRSA, 1 × MIC (8 μg/ml), within 2 h): ~ 1 log
